Assay results taken from ChEMBL document CHEMBL5252512, “Recent Progress in the Development of HIV-1 Protease Inhibitors for the Treatment of HIV/AIDS” (J Med Chem, 2016).

Key:
[1] = Clearance in rat at 2 mg/kg, iv; format: ADME, organism-based; details: in vivo
[2] = Half life in dog at 1 mg/kg, iv; format: ADME, organism-based, Canis lupus familiaris; details: in vivo
[3] = Clearance in dog at 1 mg/kg, iv; format: ADME, organism-based, Canis lupus familiaris; details: in vivo
[4] = AUC in rat at 10 mg/kg, po; format: ADME, organism-based; parameters: dose 10 mg/kg, route po; details: in vivo
[5] = Half life in rat at 1 mg/kg, iv; format: ADME, organism-based; details: in vivo
[6] = tested on: Human immunodeficiency virus 1; experiment: Ratio of EC50 for antiviral activity against darunavir-resistant HIV1 10P to EC50 for antiviral activity against wild type HIV1 ERS104pre; format: functional
[7] = tested on: Human immunodeficiency virus 1; experiment: Antiviral activity against multidrug-resistant HIV1-G infected in phytohemagglutinin-activated human PBMC cells assessed as inhibition of virus-induced cytopathic effect measured after 7 days by MTT assay; format: functional, organism-based; details: Human immunodeficiency virus 1, G, 168 h
[8] = tested on: Human immunodeficiency virus 1; experiment: Antiviral activity against wild type HIV1 ERS104pre infected in human PBMC cells assessed as inhibition of virus-induced cytopathic effect measured after 7 days by MTT assay; format: functional, organism-based; details: Human immunodeficiency virus 1, ERS104pre, 168 h
[9] = tested on: Human immunodeficiency virus 1; experiment: Ratio of EC50 for antiviral activity against darunavir-resistant HIV1 20P to EC50 for antiviral activity against wild type HIV1 ERS104pre; format: functional
[10] = tested on: Human immunodeficiency virus 1; experiment: Antiviral activity against darunavir-resistant HIV1 10P infected in phytohemagglutinin-activated human PBMC cells assessed as inhibition of virus-induced cytopathic effect measured after 7 days by MTT assay; format: functional, organism-based; details: Human immunodeficiency virus 1, 10P, 168 h
[11] = tested on: Human immunodeficiency virus 1; experiment: Ratio of EC50 for antiviral activity against HIV1-C to EC50 for antiviral activity against wild type HIV1 ERS104pre; format: functional
[12] = tested on: Human immunodeficiency virus 1; experiment: Antiviral activity against multidrug-resistant HIV1-C infected in phytohemagglutinin-activated human PBMC cells assessed as inhibition of virus-induced cytopathic effect measured after 7 days by MTT assay; format: functional, organism-based; details: Human immunodeficiency virus 1, C, 168 h
[13] = tested on: Human immunodeficiency virus 1; experiment: Ratio of EC50 for antiviral activity against HIV1-MM to EC50 for antiviral activity against wild type HIV1 ERS104pre; format: functional
[14] = tested on: Human immunodeficiency virus 1; experiment: Ratio of EC50 for antiviral activity against HIV1-B to EC50 for antiviral activity against wild type HIV1 ERS104pre; format: functional
[15] = tested on: Human immunodeficiency virus 1; experiment: Antiviral activity against darunavir-resistant HIV1 20P infected in phytohemagglutinin-activated human PBMC cells assessed as inhibition of virus-induced cytopathic effect measured after 7 days by MTT assay; format: functional, organism-based; details: Human immunodeficiency virus 1, 20P, 168 h
[16] = tested on: Human immunodeficiency virus 1; experiment: Antiviral activity against multidrug-resistant HIV1-TM infected in phytohemagglutinin-activated human PBMC cells assessed as inhibition of virus-induced cytopathic effect measured after 7 days by MTT assay; format: functional, organism-based; details: Human immunodeficiency virus 1, TM, 168 h
[17] = tested on: Human immunodeficiency virus 1; experiment: Ratio of EC50 for antiviral activity against HIV1-G to EC50 for antiviral activity against wild type HIV1 ERS104pre; format: functional
[18] = target: T1, Human immunodeficiency virus type 1 protease (Human immunodeficiency virus 1, UniProt Q72874); experiment: Binding affinity to HIV1 protease assessed as inhibition constant
[19] = tested on: Human immunodeficiency virus 1; experiment: Ratio of EC50 for antiviral activity against HIV1-TM to EC50 for antiviral activity against wild type HIV1 ERS104pre; format: functional
[20] = tested on: Human immunodeficiency virus 1; experiment: Antiviral activity against multidrug-resistant HIV1-JSL infected in phytohemagglutinin-activated human PBMC cells assessed as inhibition of virus-induced cytopathic effect measured after 7 days by MTT assay; format: functional, organism-based; details: Human immunodeficiency virus 1, JSL, 168 h
[21] = tested on: Human immunodeficiency virus 1; experiment: Ratio of EC50 for antiviral activity against HIV1-JSL to EC50 for antiviral activity against wild type HIV1 ERS104pre; format: functional
[22] = tested on: Human immunodeficiency virus 1; experiment: Antiviral activity against multidrug-resistant HIV1-MM infected in phytohemagglutinin-activated human PBMC cells assessed as inhibition of virus-induced cytopathic effect measured after 7 days by MTT assay; format: functional, organism-based; details: Human immunodeficiency virus 1, MM, 168 h
[23] = tested on: Human immunodeficiency virus 1; experiment: Antiviral activity against multidrug-resistant HIV1-B infected in phytohemagglutinin-activated human PBMC cells assessed as inhibition of virus-induced cytopathic effect measured after 7 days by MTT assay; format: functional, organism-based; details: Human immunodeficiency virus 1, B, 168 h
[24] = tested on: Human immunodeficiency virus 1; experiment: Antiviral activity against HIV1 T13632 infected in human MT4 cells expressing LTR and EGFP assessed as inhibition of virus-induced cytopathic effect by fluorescence microscopic analysis; format: functional, organism-based; details: Human immunodeficiency virus 1, T13632, MT4
[25] = tested on: Human immunodeficiency virus 1; experiment: Ratio of EC50 for antiviral activity against HIV1-T21217 to EC50 for antiviral activity against wild type HIV1 r13205; format: functional
[26] = tested on: Human immunodeficiency virus 1; experiment: Antiviral activity against HIV1 T21055 infected in human MT4 cells expressing LTR and EGFP assessed as inhibition of virus-induced cytopathic effect by fluorescence microscopic analysis; format: functional, organism-based; details: Human immunodeficiency virus 1, T21055, MT4
[27] = tested on: Human immunodeficiency virus 1; experiment: Antiviral activity against HIV1 T20760 infected in human MT4 cells expressing LTR and EGFP assessed as inhibition of virus-induced cytopathic effect by fluorescence microscopic analysis; format: functional, organism-based; details: Human immunodeficiency virus 1, T20760, MT4
[28] = tested on: Human immunodeficiency virus 1; experiment: Ratio of EC50 for antiviral activity against HIV1-T13717 to EC50 for antiviral activity against wild type HIV1 r13205; format: functional
[29] = Lipophilicity, logD of the compound in Octanol/buffer by shake-flask method; format: physicochemical
[30] = tested on: Human immunodeficiency virus 1; experiment: Antiviral activity against wild type HIV1 r13205 infected in human MT4 cells expressing LTR and EGFP assessed as inhibition of virus-induced cytopathic effect by fluorescence microscopic analysis; format: functional, organism-based; details: Human immunodeficiency virus 1, r13205, MT4
[31] = tested on: Human immunodeficiency virus 1; experiment: Ratio of EC50 for antiviral activity against HIV1-T20760 to EC50 for antiviral activity against wild type HIV1 r13205; format: functional
[32] = tested on: Human immunodeficiency virus 1; experiment: Antiviral activity against HIV1 T13572 infected in human MT4 cells expressing LTR and EGFP assessed as inhibition of virus-induced cytopathic effect by fluorescence microscopic analysis; format: functional, organism-based; details: Human immunodeficiency virus 1, T13572, MT4
[33] = tested on: Human immunodeficiency virus 1; experiment: Ratio of EC50 for antiviral activity against HIV1-T13572 to EC50 for antiviral activity against wild type HIV1 r13205; format: functional
[34] = tested on: Human immunodeficiency virus 1; experiment: Ratio of EC50 for antiviral activity against HIV1-T13632 to EC50 for antiviral activity against wild type HIV1 r13205; format: functional
[35] = tested on: Human immunodeficiency virus 1; experiment: Antiviral activity against HIV1 T13717 infected in human MT4 cells expressing LTR and EGFP assessed as inhibition of virus-induced cytopathic effect by fluorescence microscopic analysis; format: functional, organism-based; details: Human immunodeficiency virus 1, T13717, MT4
[36] = tested on: Human immunodeficiency virus 1; experiment: Antiviral activity against HIV1 T13436 infected in human MT4 cells expressing LTR and EGFP assessed as inhibition of virus-induced cytopathic effect by fluorescence microscopic analysis; format: functional, organism-based; details: Human immunodeficiency virus 1, T13436, MT4
[37] = tested on: Human immunodeficiency virus 1; experiment: Ratio of EC50 for antiviral activity against HIV1-T13436 to EC50 for antiviral activity against wild type HIV1 r13205; format: functional
[38] = tested on: Human immunodeficiency virus 1; experiment: Antiviral activity against HIV1 T21217 infected in human MT4 cells expressing LTR and EGFP assessed as inhibition of virus-induced cytopathic effect by fluorescence microscopic analysis; format: functional, organism-based; details: Human immunodeficiency virus 1, T21217, MT4
[39] = Lipophilicity, logP of the compound in Octanol/water by shake-flask method; format: physicochemical
[40] = tested on: Human immunodeficiency virus 1; experiment: Ratio of EC50 for antiviral activity against HIV1-T21055 to EC50 for antiviral activity against wild type HIV1 r13205; format: functional
[41] = Apparent permeability in rat astrocytes/rat pericytes/monkey endothelial cells triple cell co-culture system incubated for 30 mins by spectrophotometric analysis; format: ADME, cell-based
[42] = Cytotoxicity against human MT2 cells assessed as reduction in cell viability by MTT assay; format: toxicity, cell-based
[43] = Selectivity index, ratio of CC50 for human MT2 cells to IC50 for antiviral activity against HIV1 LAI; format: toxicity; details: read-out: Ratio CC50/EC50
[44] = tested on: Human immunodeficiency virus 1; experiment: Antiviral activity against HIV1 LAI infected in human MT2 cells assessed as inhibition of virus-induced cytopathic effect by MTT assay; format: functional, organism-based; details: Human immunodeficiency virus 1, LAI
[45] = target: T1, Human immunodeficiency virus type 1 protease; experiment: Binding affinity to HIV1 recombinant wild type protease expressed in Escherichia coli BL21(DE3) assessed as inhibition constant

For `CC[C@@H](CCC[C@@H](CO)N(CCC(C)C)S(=O)(=O)c1ccc(N)cc1)NC(=O)[C@@H](NC(=O)OC)C(c1ccccc1)c1ccccc1`, the clearance [1] was 48.5 mL/min/kg, the half-life [2] was 7.4 h and the clearance [3] was 10.1 mL/min/kg. For the same molecule, the AUC [4] was 1.17 µM·h and the half-life [5] was 2.13 h.

With `COc1ccc(S(=O)(=O)N(CC(C)C)C[C@@H](O)[C@H](Cc2ccccc2)NC(=O)O[C@H]2CO[C@H]3O[C@@H]4OCC[C@@H]4[C@H]32)cc1` the “Ratio EC50” value [6] was 9, the EC50 [7] was 2.6 nM and the EC50 [8] was 0.6 nM. The “Ratio EC50” value [9] was 50, the EC50 [10] was 5.6 nM and the “Ratio EC50” value [11] was 1. For the same molecule, the EC50 [12] was 0.8 nM, the “Ratio EC50” value [13] was 4 and the “Ratio EC50” value [14] was 6. For the same molecule, the EC50 [15] was 30 nM, the EC50 [16] was 2.1 nM and the “Ratio EC50” value [17] was 4. For the same molecule, the Ki [18] was 0.0059 nM, the “Ratio EC50” value [19] was 4 and the EC50 [20] was 2.5 nM. For the same molecule, the “Ratio EC50” value [21] was 4, the EC50 [22] was 2.5 nM and the EC50 [23] was 3.4 nM.

For `CC(C)CN(C[C@@H](O)[C@H](Cc1ccccc1)NC(=O)O[C@H]1CO[C@H]2OCC[C@H]21)S(=O)(=O)c1ccc(N)cc1`, the EC50 [24] was 624 nM, the “Ratio EC50” value [6] was 11 and the “Ratio EC50” value [25] was 3.8. For the same molecule, the EC50 [7] was 7 nM, the EC50 [8] was 3.8 nM and the “Ratio EC50” value [9] was 64. For the same molecule, the EC50 [26] was 122 nM, the EC50 [10] was 43.4 nM and the EC50 [27] was 39 nM. For the same molecule, the “Ratio EC50” value [11] was 2, the EC50 [12] was 5 nM and the “Ratio EC50” value [28] was 30. The logD [29] was -1.03, the EC50 [30] was 22 nM and the “Ratio EC50” value [13] was 3. For the same molecule, the “Ratio EC50” value [31] was 1.8, the EC50 [32] was 234 nM and the “Ratio EC50” value [14] was 7. The “Ratio EC50” value [33] was 11, the EC50 [15] was 255 nM and the “Ratio EC50” value [34] was 28. The EC50 [16] was 4.3 nM, the EC50 [35] was 670 nM and the “Ratio EC50” value [17] was 2. For the same molecule, the EC50 [36] was 49 nM, the “Ratio EC50” value [19] was 1 and the EC50 [20] was greater than 25 nM. For the same molecule, the “Ratio EC50” value [21] was 6, the “Ratio EC50” value [37] was 2.2 and the EC50 [38] was 84 nM. For the same molecule, the logP [39] was -0.63, the “Ratio EC50” value [40] was 5.5 and the EC50 [22] was 10 nM. For the same molecule, the EC50 [23] was 21 nM.

Work on `CC(C)CN(C[C@@H](O)[C@H](Cc1ccccc1)NC(=O)O[C@H]1CO[C@H]2OCC(F)(F)[C@H]21)S(=O)(=O)c1ccc(N)cc1` yielded an EC50 [7] of 4 nM, a Papp at 0.5 h [41] of 47.8 ×10⁻⁶ cm/s and an EC50 [8] of 2.7 nM. The CC50 [42] was 37000 nM, the selectivity ratio [43] was 12300 and the “Ratio EC50” value [11] was 1. It also gave an EC50 [12] of 2 nM, an EC50 [44] of 3 nM and a logD [29] of -1.01. For the same molecule, the “Ratio EC50” value [13] was 1, the “Ratio EC50” value [14] was 3 and the EC50 [16] was 4 nM. The “Ratio EC50” value [17] was 2, the Ki [18] was 0.0058 nM and the “Ratio EC50” value [19] was 2. The EC50 [20] was 20 nM, the “Ratio EC50” value [21] was 7 and the logP [39] was -0.83. The EC50 [22] was 3 nM and the EC50 [23] was 11 nM.

With `CC(C)CN(C[C@@H](O)[C@H](Cc1ccccc1)NC(=O)O[C@H]1CO[C@H]2OCC[C@H]21)S(=O)(=O)c1ccc(C(N)=O)cc1` the EC50 [44] was 93 nM and the Ki [45] was 0.0089 nM.
